Patent publication US11566057B2, “Long-acting co-agonists of the glucagon and GLP-1 receptors” (Merck Sharp & Dohme Corp., priority 2017, dated 2023)
Numbered stars: 1 amine (or outer) side, 2 acyl side, 3 side chain; on linkers, the order of the positions; unused ones are H or OH. Square brackets hold non-standard residues; d marks the D form. Side chains are listed from the residue outwards. Peptide text beside a SMILES is read from it. * marks the point of attachment. Phe(4-CH2NH2) = NCc1ccc(C[C@H](N)C(=O)O)cc1; C18 diacid = O=C(O)CCCCCCCCCCCCCCCCC(=O)*; αMeW = C[C@](N)(Cc1c[nH]c2ccccc12)C(=O)O; C16 diacid = O=C(O)CCCCCCCCCCCCCCC(=O)*; γGlu = O=C(O)[C@H](CCC(=O)[*:2])N[*:1]; Met(O2) = CS(=O)(=O)CC[C@H](N)C(=O)O; PEG5 = NCCOCCOCCOCCOCCOCCC(=O)O; αMeD = C[C@](N)(CC(=O)O)C(=O)O; AEEA = NCCOCCOCC(=O)O; Aib = CC(C)(N)C(=O)O

Target: T1, human GCGR (Homo sapiens, UniProt P47871)
T1 construct: expressed in transfected cells; growth medium holds Blasticidin and Hygromycin
Test: cAMP activity assay at the Glucagon receptor (GCGR)
Assay type: cell-based
Settings: for hGCGR/hGLP1R (hTone): ratio of GCGR EC50 to GLP1R EC50; for EC50: cells expressing human GCGR, cAMP production, buffer with or without 20% human serum (not stated which), read-out: GCGR EC50 human
Experimental: Activity of the peptides at the Glucagon receptor (GCGR) and GLP-1 receptor (GLP1R) was measured in a cAMP activity assay.
GCG/GLP-1 receptor co-agonist peptides were dissolved in 100% DMSO (dimethyl sulfoxide) and serially diluted to generate 10 point titrations. The peptide solutions were then transferred into 384-well assay plates (150 nL/well). Assay ready frozen cells expressing human GLP1R or human GCGR were suspended in growth media consisting of DMEM medium (GIBCO®), 10% FBS (GIBCO®), 1×NEAA(GIBCO®), 1×P/S (GIBCO®), 10 ug/mL Blasticidin (GIBCO®) and 200 μg/mL Hygromycin (GIBCO®). […] The cell suspensions (15 μL) were then added to the assay plates containing the peptide solutions (30,000 cells/well for human GCGR; 10,000 cells/well for human GLP1R). The cells were incubated for 1 hour at room temperature in the dark. Production of cAMP was determined using HitHunter™ cAMPXS kits (DiscoverX) following manufacturer protocol. The plates were incubated for overnight at room temperature in the dark. Luminescence was measured using an EnVision Multilabel plate reader (Perkin Elmer). Native GLP-1 and Glucagon (Bachem) are used as control peptides. EC50 values were calculated using uses a 4 parameter logistic fit based on the Levenberg-Marquardt algorithm.

T1 sequence (P47871 26-477): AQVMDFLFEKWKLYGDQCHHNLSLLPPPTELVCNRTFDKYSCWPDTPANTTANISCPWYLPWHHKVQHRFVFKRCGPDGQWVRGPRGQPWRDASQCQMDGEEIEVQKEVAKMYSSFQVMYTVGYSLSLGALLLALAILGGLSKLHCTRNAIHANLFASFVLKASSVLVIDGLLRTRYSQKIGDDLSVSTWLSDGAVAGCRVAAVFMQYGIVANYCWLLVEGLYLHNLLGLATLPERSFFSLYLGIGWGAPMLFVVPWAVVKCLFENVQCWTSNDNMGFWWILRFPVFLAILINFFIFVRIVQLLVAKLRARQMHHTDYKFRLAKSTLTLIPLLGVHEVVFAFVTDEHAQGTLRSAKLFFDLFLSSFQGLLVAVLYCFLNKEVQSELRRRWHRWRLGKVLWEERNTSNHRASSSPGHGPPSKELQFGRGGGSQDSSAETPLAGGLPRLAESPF

CC(C)C[C@H](NC(=O)[C@H](Cc1ccc(O)cc1)NC(=O)[C@H](CCCCN)NC(=O)[C@H](CO)NC(=O)[C@H](Cc1ccc(O)cc1)NC(=O)[C@H](CC(=O)O)NC(=O)[C@H](CO)NC(=O)[C@@H](NC(=O)[C@H](Cc1ccccc1)NC(=O)[C@@H](NC(=O)CNC(=O)[C@H](CCC(N)=O)NC(=O)C(C)(C)NC(=O)[C@@H](N)Cc1c[nH]cn1)[C@@H](C)O)[C@@H](C)O)C(=O)N[C@@H](CC(=O)O)C(=O)N[C@@H](C)C(=O)N[C@@H](CCCCN)C(=O)N[C@@H](C)C(=O)N[C@@H](C)C(=O)N[C@@H](CCCCNC(=O)COCCOCCNC(=O)COCCOCCNC(=O)CC[C@H](NC(=O)CCCCCCCCCCCCCCCCC(=O)O)C(=O)O)C(=O)N[C@@H](CC(=O)O)C(=O)N[C@@H](Cc1ccccc1)C(=O)N[C@H](C(=O)N[C@@H](CCC(N)=O)C(=O)N[C@@H](Cc1c[nH]c2ccccc12)C(=O)N[C@@H](CC(C)C)C(=O)N[C@@H](CCS(C)(=O)=O)C(=O)N[C@@H](CC(=O)O)C(=O)N[C@H](C(N)=O)[C@@H](C)O)C(C)C [TP598] (H-H[Aib]QGTFTSDYSKYLDAKAAK([AEEA-AEEA-γGlu-C18 diacid])DFVQWL[Met(O2)]DT-NH2; N-terminus assumed)
hGCGR/hGLP1R (hTone): 2.3

CC(C)C[C@H](NC(=O)[C@H](Cc1ccc(O)cc1)NC(=O)[C@H](CCCCN)NC(=O)[C@H](CO)NC(=O)[C@H](Cc1ccc(O)cc1)NC(=O)[C@H](CC(=O)O)NC(=O)[C@H](CO)NC(=O)[C@@H](NC(=O)[C@H](Cc1ccccc1)NC(=O)[C@@H](NC(=O)CNC(=O)[C@H](CCC(N)=O)NC(=O)C(C)(C)NC(=O)[C@@H](N)Cc1c[nH]cn1)[C@@H](C)O)[C@@H](C)O)C(=O)N[C@@H](CC(=O)O)C(=O)N[C@@H](C)C(=O)N[C@@H](CCCNC(=N)N)C(=O)N[C@@H](C)C(=O)N[C@@H](C)C(=O)N[C@@H](CCC(N)=O)C(=O)N[C@@H](CC(=O)O)C(=O)N[C@@H](Cc1ccccc1)C(=O)N[C@H](C(=O)N[C@@H](CCC(N)=O)C(=O)N[C@@H](Cc1c[nH]c2ccccc12)C(=O)N[C@@H](CC(C)C)C(=O)N[C@@H](CCS(C)(=O)=O)C(=O)N[C@@H](Cc1ccc(CNC(=O)COCCOCCNC(=O)COCCOCCNC(=O)CC[C@H](NC(=O)CCCCCCCCCCCCCCCCC(=O)O)C(=O)O)cc1)C(=O)N[C@H](C(N)=O)[C@@H](C)O)C(C)C [TP604] (H-H[Aib]QGTFTSDYSKYLDARAAQDFVQWL[Met(O2)][Phe(4-CH2NH2)]([AEEA-AEEA-γGlu-C18 diacid])T-NH2; N-terminus assumed)
hGCGR/hGLP1R (hTone): 2.3

CC(C)C[C@H](NC(=O)[C@H](Cc1ccc(O)cc1)NC(=O)[C@H](CCCCN)NC(=O)[C@H](CO)NC(=O)[C@H](Cc1ccc(O)cc1)NC(=O)[C@H](CC(=O)O)NC(=O)[C@H](CO)NC(=O)[C@@H](NC(=O)[C@H](Cc1ccccc1)NC(=O)[C@@H](NC(=O)CNC(=O)[C@H](CCC(N)=O)NC(=O)C(C)(C)NC(=O)[C@@H](N)Cc1c[nH]cn1)[C@@H](C)O)[C@@H](C)O)C(=O)N[C@@H](CC(=O)O)C(=O)N[C@@H](C)C(=O)N[C@@H](CCCNC(=N)N)C(=O)N[C@@H](C)C(=O)N[C@@H](C)C(=O)N[C@@H](CCC(N)=O)C(=O)N[C@@H](CCCCNC(=O)CCOCCOCCOCCOCCOCCNC(=O)CC[C@H](NC(=O)CCCCCCCCCCCCCCCCC(=O)O)C(=O)O)C(=O)N[C@@H](Cc1ccccc1)C(=O)N[C@H](C(=O)N[C@@H](CCC(N)=O)C(=O)N[C@@H](Cc1c[nH]c2ccccc12)C(=O)N[C@@H](CC(C)C)C(=O)N[C@@H](CCS(C)(=O)=O)C(=O)N[C@@](C)(CC(=O)O)C(=O)N[C@H](C(N)=O)[C@@H](C)O)C(C)C [TP608] (H-H[Aib]QGTFTSDYSKYLDARAAQK([PEG5-γGlu-C18 diacid])FVQWL[Met(O2)][αMeD]T-NH2)
hGCGR/hGLP1R (hTone): 0.9

CC(C)C[C@H](NC(=O)[C@H](Cc1ccc(O)cc1)NC(=O)[C@H](CCCCN)NC(=O)[C@H](CO)NC(=O)[C@H](Cc1ccc(O)cc1)NC(=O)[C@H](CC(=O)O)NC(=O)[C@H](CO)NC(=O)[C@@H](NC(=O)[C@H](Cc1ccccc1)NC(=O)[C@@H](NC(=O)CNC(=O)[C@H](CCC(N)=O)NC(=O)C(C)(C)NC(=O)[C@@H](N)Cc1c[nH]cn1)[C@@H](C)O)[C@@H](C)O)C(=O)N[C@@H](CC(=O)O)C(=O)N[C@@H](C)C(=O)N[C@@H](CCCNC(=N)N)C(=O)N[C@@H](C)C(=O)N[C@@H](C)C(=O)N[C@@H](CCC(N)=O)C(=O)N[C@@H](Cc1ccc(CNC(=O)COCCOCCNC(=O)COCCOCCNC(=O)CC[C@H](NC(=O)CCCCCCCCCCCCCCCCC(=O)O)C(=O)O)cc1)C(=O)N[C@@H](Cc1ccccc1)C(=O)N[C@H](C(=O)N[C@@H](CCC(N)=O)C(=O)N[C@@H](Cc1c[nH]c2ccccc12)C(=O)N[C@@H](CC(C)C)C(=O)N[C@@H](CC(C)C)C(=O)N[C@@](C)(CC(=O)O)C(=O)N[C@H](C(N)=O)[C@@H](C)O)C(C)C [TP609] (H-H[Aib]QGTFTSDYSKYLDARAAQ[Phe(4-CH2NH2)]([AEEA-AEEA-γGlu-C18 diacid])FVQWLL[αMeD]T-NH2; N-terminus assumed)
hGCGR/hGLP1R (hTone): 0.9

CC(C)C[C@H](NC(=O)[C@H](Cc1ccc(O)cc1)NC(=O)[C@H](CCCCN)NC(=O)[C@H](CO)NC(=O)[C@H](Cc1ccc(O)cc1)NC(=O)[C@H](CC(=O)O)NC(=O)[C@H](CO)NC(=O)[C@@H](NC(=O)[C@H](Cc1ccccc1)NC(=O)[C@@H](NC(=O)CNC(=O)[C@H](CCC(N)=O)NC(=O)C(C)(C)NC(=O)[C@@H](N)Cc1c[nH]cn1)[C@@H](C)O)[C@@H](C)O)C(=O)N[C@@H](CC(=O)O)C(=O)N[C@@H](CCC(=O)O)C(=O)N[C@@H](CCCNC(=N)N)C(=O)N[C@@H](C)C(=O)N[C@@H](C)C(=O)N[C@@H](CCCCNC(=O)COCCOCCNC(=O)COCCOCCNC(=O)CC[C@H](NC(=O)CCCCCCCCCCCCCCCCC(=O)O)C(=O)O)C(=O)N[C@@H](CC(=O)O)C(=O)N[C@@H](Cc1ccccc1)C(=O)N[C@H](C(=O)N[C@@H](CCC(N)=O)C(=O)N[C@@H](Cc1c[nH]c2ccccc12)C(=O)N[C@@H](CC(C)C)C(=O)N[C@@H](CCS(C)(=O)=O)C(=O)N[C@@](C)(CC(=O)O)C(=O)N[C@H](C(N)=O)[C@@H](C)O)C(C)C [TP613] (H-H[Aib]QGTFTSDYSKYLDERAAK([AEEA-AEEA-γGlu-C18 diacid])DFVQWL[Met(O2)][αMeD]T-NH2)
EC50: > 5 nM
hGCGR/hGLP1R (hTone): >6

CC(C)C[C@H](NC(=O)[C@H](Cc1ccc(O)cc1)NC(=O)[C@H](CCCCN)NC(=O)[C@H](CO)NC(=O)[C@H](Cc1ccc(O)cc1)NC(=O)[C@H](CC(=O)O)NC(=O)[C@H](CO)NC(=O)[C@@H](NC(=O)[C@H](Cc1ccccc1)NC(=O)[C@@H](NC(=O)CNC(=O)[C@H](CCC(N)=O)NC(=O)C(C)(C)NC(=O)[C@@H](N)Cc1c[nH]cn1)[C@@H](C)O)[C@@H](C)O)C(=O)N[C@@H](CC(=O)O)C(=O)N[C@@H](C)C(=O)N[C@@H](CCCNC(=N)N)C(=O)N[C@@H](C)C(=O)N[C@@H](C)C(=O)N[C@@H](CCCCNC(=O)COCCOCCNC(=O)CC[C@H](NC(=O)CCCCCCCCCCCCCCCCC(=O)O)C(=O)O)C(=O)N[C@@H](CC(=O)O)C(=O)N[C@@H](Cc1ccccc1)C(=O)N[C@H](C(=O)N[C@@H](CCC(N)=O)C(=O)N[C@@H](Cc1c[nH]c2ccccc12)C(=O)N[C@@H](CC(C)C)C(=O)N[C@@H](CCS(C)(=O)=O)C(=O)N[C@@](C)(CC(=O)O)C(=O)N[C@H](C(N)=O)[C@@H](C)O)C(C)C [TP628] (H-H[Aib]QGTFTSDYSKYLDARAAK([AEEA-γGlu-C18 diacid])DFVQWL[Met(O2)][αMeD]T-NH2; N-terminus assumed)
EC50: 0.86 nM
hGCGR/hGLP1R (hTone): 0.6

CC(C)C[C@H](NC(=O)[C@H](Cc1ccc(O)cc1)NC(=O)[C@H](CCCCN)NC(=O)[C@H](CO)NC(=O)[C@H](Cc1ccc(O)cc1)NC(=O)[C@H](CC(=O)O)NC(=O)[C@H](CO)NC(=O)[C@@H](NC(=O)[C@H](Cc1ccccc1)NC(=O)[C@@H](NC(=O)CNC(=O)[C@H](CCC(N)=O)NC(=O)C(C)(C)NC(=O)[C@@H](N)Cc1c[nH]cn1)[C@@H](C)O)[C@@H](C)O)C(=O)N[C@@H](CC(=O)O)C(=O)N[C@@H](C)C(=O)N[C@@H](CCCNC(=N)N)C(=O)N[C@@H](C)C(=O)N[C@@H](C)C(=O)N[C@@H](CCCCNC(=O)COCCOCCNC(=O)COCCOCCNC(=O)CC[C@H](NC(=O)CCCCCCCCCCCCCCC(=O)O)C(=O)O)C(=O)N[C@@H](CC(=O)O)C(=O)N[C@@H](Cc1ccccc1)C(=O)N[C@H](C(=O)N[C@@H](CCC(N)=O)C(=O)N[C@@](C)(Cc1c[nH]c2ccccc12)C(=O)N[C@@H](CC(C)C)C(=O)N[C@@H](CCS(C)(=O)=O)C(=O)N[C@@H](CC(=O)O)C(=O)N[C@H](C(N)=O)[C@@H](C)O)C(C)C [TP630] (H-H[Aib]QGTFTSDYSKYLDARAAK([AEEA-AEEA-γGlu-C16 diacid])DFVQ[αMeW]L[Met(O2)]DT-NH2; N-terminus assumed)
hGCGR/hGLP1R (hTone): 3.0
